# Results: PubChem BioAssay (NCI)
#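 Step 1: Grow cells in 96-well plates. Step 2: Expose to compound for 48 hours at 5 concentrations. Step 3: Interpolate endpoints linearly; if unreached, use highest concentration. GI50 marks 50% less growth. TGI is the concentration that stops growth completely.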
# Experiments:
# Test in all cases: inhibition of tumour cell growth, NCI panel, 48 h
# MDA-MB-231 breast = tested on: MDA-MB-231 breast
# RXF 393 renal = tested on: RXF 393 renal
# HCT-116 colon = tested on: HCT-116 colon
# DU-145 prostate = tested on: DU-145 prostate
# HOP-62 NSCLC = tested on: HOP-62 NSCLC
# PC-3 prostate = tested on: PC-3 prostate
# UACC-257 melanoma = tested on: UACC-257 melanoma
# SNB-19 CNS = tested on: SNB-19 CNS
# OVCAR-4 ovarian = tested on: OVCAR-4 ovarian
# NCI-H226 lung = tested on: NCI-H226 lung
# SF-295 CNS = tested on: SF-295 CNS
# TK-10 renal = tested on: TK-10 renal
# NCI-H460 lung = tested on: NCI-H460 lung
# BT-549 breast = tested on: BT-549 breast
# SN12C renal = tested on: SN12C renal
# SK-MEL-5 melanoma = tested on: SK-MEL-5 melanoma
# T-47D breast = tested on: T-47D breast
# A498 renal = tested on: A498 renal
# NCI-H23 lung = tested on: NCI-H23 lung
# UACC-62 melanoma = tested on: UACC-62 melanoma
# OVCAR-5 ovarian = tested on: OVCAR-5 ovarian
# SF-539 CNS = tested on: SF-539 CNS
# CCRF-CEM leukemia = tested on: CCRF-CEM leukemia
# SK-OV-3 ovarian = tested on: SK-OV-3 ovarian
# SF-268 CNS = tested on: SF-268 CNS
# SK-MEL-2 melanoma = tested on: SK-MEL-2 melanoma
# COLO 205 colon = tested on: COLO 205 colon
# A549 NSCLC = tested on: A549 NSCLC
# U251 CNS = tested on: U251 CNS
# RPMI-8226 leukemia = tested on: RPMI-8226 leukemia
# LOX IMVI melanoma = tested on: LOX IMVI melanoma
# SNB-75 CNS = tested on: SNB-75 CNS
# MALME-3M melanoma = tested on: MALME-3M melanoma
# HL-60(TB) leukemia = tested on: HL-60(TB) leukemia
# HS 578T breast = tested on: HS 578T breast
# SR leukemia = tested on: SR leukemia
# UO-31 renal = tested on: UO-31 renal
smiles,measurement,setting,value
O=C(Nc1ccc(Br)cc1)Nc1nc2ccc([N+](=O)[O-])cc2s1,GI50,MDA-MB-231 breast,1470 nM
same,TGI,MDA-MB-231 breast,3500 nM
same,GI50,RXF 393 renal,862 nM
same,TGI,RXF 393 renal,2410 nM
same,GI50,HCT-116 colon,875 nM
same,TGI,HCT-116 colon,2370 nM
same,GI50,DU-145 prostate,1730 nM
same,TGI,DU-145 prostate,4680 nM
same,GI50,HOP-62 NSCLC,1880 nM
same,TGI,HOP-62 NSCLC,5040 nM
same,GI50,PC-3 prostate,542 nM
same,TGI,PC-3 prostate,2080 nM
same,GI50,UACC-257 melanoma,1430 nM
same,TGI,UACC-257 melanoma,4110 nM
same,GI50,SNB-19 CNS,1180 nM
same,TGI,SNB-19 CNS,4070 nM
same,GI50,OVCAR-4 ovarian,1130 nM
same,TGI,OVCAR-4 ovarian,3820 nM
same,GI50,NCI-H226 lung,1440 nM
same,TGI,NCI-H226 lung,3090 nM
same,GI50,SF-295 CNS,1270 nM
same,TGI,SF-295 CNS,2950 nM
same,GI50,TK-10 renal,1890 nM
same,TGI,TK-10 renal,4750 nM
same,GI50,NCI-H460 lung,1280 nM
same,TGI,NCI-H460 lung,3080 nM
same,GI50,BT-549 breast,1520 nM
same,TGI,BT-549 breast,3270 nM
same,GI50,SN12C renal,1530 nM
same,TGI,SN12C renal,4650 nM
same,GI50,SK-MEL-5 melanoma,696 nM
same,TGI,SK-MEL-5 melanoma,2030 nM
same,GI50,T-47D breast,573 nM
same,TGI,T-47D breast,3380 nM
same,GI50,A498 renal,192 nM
same,TGI,A498 renal,785 nM
same,GI50,NCI-H23 lung,926 nM
same,TGI,NCI-H23 lung,2500 nM
same,GI50,UACC-62 melanoma,1070 nM
same,TGI,UACC-62 melanoma,3600 nM
same,GI50,OVCAR-5 ovarian,2080 nM
same,TGI,OVCAR-5 ovarian,5070 nM
same,GI50,SF-539 CNS,1310 nM
same,TGI,SF-539 CNS,3080 nM
same,GI50,CCRF-CEM leukemia,377 nM
same,TGI,CCRF-CEM leukemia,2740 nM
same,GI50,SK-OV-3 ovarian,1590 nM
same,TGI,SK-OV-3 ovarian,6750 nM
same,GI50,SF-268 CNS,1690 nM
same,TGI,SF-268 CNS,5440 nM
same,GI50,SK-MEL-2 melanoma,1260 nM
same,TGI,SK-MEL-2 melanoma,3000 nM
same,GI50,COLO 205 colon,1640 nM
same,TGI,COLO 205 colon,3150 nM
same,GI50,A549 NSCLC,1860 nM
same,TGI,A549 NSCLC,6900 nM
same,GI50,U251 CNS,1200 nM
same,TGI,U251 CNS,4260 nM
same,GI50,RPMI-8226 leukemia,425 nM
same,TGI,RPMI-8226 leukemia,1700 nM
same,GI50,LOX IMVI melanoma,1340 nM
same,TGI,LOX IMVI melanoma,2670 nM
same,GI50,SNB-75 CNS,1070 nM
same,TGI,SNB-75 CNS,3000 nM
same,GI50,MALME-3M melanoma,792 nM
same,TGI,MALME-3M melanoma,3490 nM
same,GI50,HL-60(TB) leukemia,1020 nM
same,TGI,HL-60(TB) leukemia,2750 nM
same,GI50,HS 578T breast,1470 nM
same,TGI,HS 578T breast,3990 nM
same,GI50,SR leukemia,474 nM
same,TGI,SR leukemia,2280 nM
same,GI50,UO-31 renal,1490 nM
same,TGI,UO-31 renal,4740 nM
